From paper PMC7708037, “Targeting OGG1 arrests cancer cell proliferation by inducing replication stress” (Nucleic Acids Research, 2020)

What was measured:
[1] = target: OGG1 enzyme (Homo sapiens, UniProt O15527); assay: Cellular thermal shift assay in excised xenograft tumors; assay type: in vivo; design: endogenous in cells; host or cells: A3 T-cell acute lymphoblastic leukemia cells (luciferase-transfected) grown as subcutaneous xenograft tumours in NOD-SCID mice; conditions: A3 xenograft tumors excised following termination
Sequence of OGG1 enzyme (O15527 whole entry): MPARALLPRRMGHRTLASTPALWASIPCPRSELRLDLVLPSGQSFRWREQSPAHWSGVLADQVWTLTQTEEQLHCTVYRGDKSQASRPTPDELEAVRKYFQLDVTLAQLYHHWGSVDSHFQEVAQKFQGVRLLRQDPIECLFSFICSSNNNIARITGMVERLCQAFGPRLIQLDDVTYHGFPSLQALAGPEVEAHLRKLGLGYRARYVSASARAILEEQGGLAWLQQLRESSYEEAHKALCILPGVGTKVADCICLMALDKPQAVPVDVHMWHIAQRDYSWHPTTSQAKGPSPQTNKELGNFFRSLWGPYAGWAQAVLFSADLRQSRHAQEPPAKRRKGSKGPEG
Protocol: Animal experiments were conducted as per the European directive, ethical guideline and regulations of the regional animal ethical committee Stockholm 2010/63 (N8914). Upon arrival to animal facility, animals were acclimatized in the animal house for a week with ad lib food and water, with a 12 h light cycle and the temperature and humidity set according to laboratory animal guidelines and regulations. For the xenograft experiment involving inducible shRNA, 1 × 10^7 non-targeting luciferase transfected A3 cells in 50% matrigel in PBS were injected into flank region of BALB/c nude mice. Later, mice from non-targeting and shRNA groups were randomly divided into two groups containing eight mice per group. […] Tumor volume was measured using calipers (length × 0.52 × width × width) and bioluminescence images were taken using an IVIS spectrum in vivo imaging system (Perkin-Elmer) after intraperitoneal injection of D-luciferin (150 mg/kg in PBS). […] Following lysis by three freeze-thaw cycles, samples were centrifuged at 20 000 × g for 30 min, and OGG1 in the supernatant was detected by immunoblotting. […]
Figure 7. […] Tumors were excised following termination, and TH5487 target engagement was analyzed by cellular thermal shift assay, using an antibody specific for the human OGG1 protein. […]

[2] = test system: HEK293T and HEK293T(KO) cells; assay: Colony area of HEK293T vs HEK293T(KO); assay type: cell-based, human; conditions: 8 days exposure
Text: 250 HEK293T or HEK293T (KO) cells were counted and seeded in 6-well plates for 8 days in the presence or absence of TH5487 at indicated concentrations. Colonies were directly scanned after removing media and drying colonies. Area of HEK293T or HEK293T(KO) colonies was digitally colour contrasted and then analysed using ImageJ. […]
untreated parental HEK293T. Data are average ±SEM of 4 technical replicates from 2 independent experiments. F. Comparative analysis of the colony area (pixels) for HEK293T or HEK293T(KO) cells exposed for eight days to TH5487 or DMSO. Data are average ±SEM of 4 technical replicates from 2 independent experiments. Statistical significance was determined using Mann Witney test (**, P<0.01, ***, P<0.001 and ****, P<0.0001 , ns, non-significant).
Supplementary Fig. S6: 8 -oxodG levels and cell cycle distribution. A. 8-oxodG accumulation in A3 knockdown cells. The indicated shNT cells were treated with 250 ng/ml doxycycline for 0, 96, or 144 h, and the amount of genomic 8-oxodG was quantified with LC -MS/MS. […] Cells were treated with 10 µM TH5487 or an equivalent volume DMSO for the indicated times, and the cell cycle distribution was determined by flow cytometry. […] A3 shNT (grey), sh2 (blue), and sh3 (red), were treated with 250 ng/ml doxycycline for 48 –120 h, and the cell cycle distribution was determined with flow cytometry. […]

O=C(Nc1ccc(I)cc1)N1CCC(n2c(=O)[nH]c3c(Br)cccc32)CC1 [TH5487]
OGG1 target engagement in xenograft tumor (CETSA) [1]: unable to demonstrate OGG1 target engagement | Colony area, HEK293T compared to HEK293T (KO) [2]: significantly reduced
